Consider 123 molecules from a melting point compilation (Tetko et al.).

On to `NC(=O)c1cc(Br)ccc1N`, for which the melting point was in the range of 183 to 185 °C.

For the molecule `COc1cc(NC(C)=O)ccc1I`, the melting point lay in the range of 138 to 140 °C.

As to `O=Cc1ccc(-c2cccc(Br)c2)o1`, the melting point fell in the range of 99 to 101 °C.

The molecule `CC(C)(C)c1cc(C(=O)O)c(O)c(C(C)(C)C)c1` came in with a melting point of 157 to 162 °C.

On to `NC(=O)CSc1ccccc1NC(=O)CCl`, for which the melting point is 129 to 131 °C.

Regarding `CN1CCN(CCOc2ccc(N)cc2)CC1`, the melting point lay within 63 to 65 °C.

Regarding `COC(=O)c1ccc(N)c(OC(F)F)c1`, the melting point is 64 to 66 °C.

In turn, `CCC(C#N)NC(=O)c1ccccc1` (stereo not drawn) came in with a melting point of 104 to 106 °C.

Molecule `O=C1OC(=O)c2cc([N+](=O)[O-])cc3cc([N+](=O)[O-])cc1c23` had a melting point of 216 to 218 °C.

Consider `COc1ccc(C2C(C(N)=O)CCC(=O)N2C)cc1` (stereo not drawn), for which the melting point was in the range of 220 to 222 °C.

Molecule `COC(=O)Cc1cc(=O)n(C(C)(C)C)[nH]1` displayed a melting point of 110 to 112 °C.

`Nc1nnc(CC2CC2)o1` showed a melting point of 141 to 143 °C.

As for `COc1ccc2c(CO)cc(=O)oc2c1`, the melting point was in the range of 177 to 179 °C.

On to `CC1CC(C)CN(c2nnc(S)n2Cc2ccco2)C1` (stereo not drawn), for which the melting point lay within 119 to 121 °C.

As to `CCn1c(=O)c(=O)[nH]c2cc(C(=O)O)ccc21`, the melting point is 270 to 285 °C.

The molecule `O=C(Nc1ccccc1F)C1CCc2ccccc2N1` (stereo not drawn) registered a melting point of 96 to 98 °C.

Take `Cc1cc(C(=O)O)c2c(-c3ccco3)noc2n1`: the melting point was 232 to 234 °C.

With `CCn1c(CCl)nc2cc(S(=O)(=O)N3CCCCC3)ccc21`, the melting point lay within 234 to 236 °C.

The molecule `CC(C)(C)C(N)CN1CCc2ccccc2C1` (stereo not drawn) yielded a melting point of 62 to 64 °C.

In the case of `Cc1cnc2ccccc2c1Cl`, the melting point was in the range of 57 to 59 °C.

In the case of `O=C(Nc1cccc(Cl)c1N1CCOCC1)OCC(F)(F)F`, the melting point fell in the range of 74 to 76 °C.

Molecule `CCCCNc1ccc(S(N)(=O)=O)cc1N` showed a melting point of 130 to 132 °C.

Turning to `CC(N)c1cccc(O)c1` (stereo not drawn), the melting point was 166 to 168 °C.

Molecule `COc1cc(C)nc(CO)c1` came in with a melting point of 69 to 71 °C.

In the case of `O=C(O)CCSc1ccc2c(c1)OCCO2`, the melting point was in the range of 87 to 89 °C.

For `CC(C)NC(=O)C1CCCC(N)C1` (stereo not drawn), the melting point was in the range of 126 to 128 °C.

For `COc1ccc2[nH]c3c(c2c1)CCC3`, the melting point was 119 to 121 °C.

Consider `CC1(C)CCCC(C)(C)N1O`, for which the melting point lay within 36 to 38 °C.

`Cc1cccc(N2N=C(C(=O)O)CCC2=O)c1`: the melting point was in the range of 152 to 154 °C.

Take `CCOC(=O)CNC(=O)CC`: the melting point was 50 to 52 °C.

Regarding `CCCCc1ccc(NC(=S)NN)cc1`, the melting point lay in the range of 125 to 127 °C.

In turn, `Cn1nnnc1-c1cccc(NC(=O)OCC(F)(F)F)c1` registered a melting point of 128 to 130 °C.

With `COc1cc(C=O)ccc1OC(=O)OC(C)(C)C`, the melting point fell in the range of 89 to 91 °C.

`CCOc1cc(C(=O)O)cc(Br)c1OC`: the melting point is 182 to 184 °C.

`O=C(O)CC(NC(=O)OCc1ccccc1)c1ccccc1` (stereo not drawn) had a melting point of 124 to 126 °C.

Turning to `O=C(O)C(O)c1cc(Cl)cc(Cl)c1` (stereo not drawn), the melting point was 99 to 101 °C.

Consider `Cn1c(=O)c2[nH]c(Br)nc2n(C)c1=O`, for which the melting point fell in the range of 299 to 301 °C.

`CC(C)(c1ccccc1)c1nnc(N)s1` registered a melting point of 149 to 151 °C.

`N#Cc1ccc2cc(Br)c(Br)cc2c1` showed a melting point of 138 to 140 °C.

In turn, `CN(C)c1cncc(Cl)n1` came in with a melting point of 44 to 46 °C.

`CC(C)Cn1cc(C(=O)O)c2ccccc21` registered a melting point of 151 to 153 °C.

With `CCOc1ccc(N2CC(C(=O)O)CC2=O)cc1` (stereo not drawn), the melting point was in the range of 133 to 137 °C.

In turn, `O=C(O)C=Cc1cncc2ccccc12` gave a melting point of 260 to 262 °C.

On to `CC(C)(C)NCCC(N)=O`, for which the melting point is 95 to 97 °C.

The molecule `NNC(=O)Cc1cn2ccccc2n1` registered a melting point of 128 to 130 °C.

For the molecule `Cc1ccc2[nH]c3c(c2c1)CCCC3=O`, the melting point lay in the range of 185 to 187 °C.

`O=C(NC1CCCCC1)OCC(F)(F)F` came in with a melting point of 78 to 82 °C.

`COc1ccc(CC(=O)O)cc1F` displayed a melting point of 110 to 112 °C.

For `CC1(C)Cc2cccc(OCC(=O)O)c2O1`, the melting point fell in the range of 111 to 113 °C.

As for `Cc1ccc(Oc2ccc(N)cn2)cc1`, the melting point is 90 to 92 °C.

Take `O=C(O)c1cccc(OCc2ccc(F)cc2)c1`: the melting point is 143 to 145 °C.

Molecule `CCNc1ncc(C(=O)OC)s1` had a melting point of 136 to 138 °C.

Consider `CC(C)(C)OC(=O)N1CCC(OC(=O)c2ccccc2N)CC1`, for which the melting point fell in the range of 120 to 122 °C.

`O=C(O)c1ccc2[nH]c(=O)c(=O)[nH]c2c1` yielded a melting point of 250 to 252 °C.

`CNC(=O)Cc1ccc(N)cc1` gave a melting point of 84 to 86 °C.

Take `N#CCC(=O)c1ccc(OC(F)F)cc1`: the melting point was in the range of 80 to 82 °C.

Turning to `COc1ccc(C(C)=O)cc1-c1cccc(C(F)(F)F)c1`, the melting point was 76 to 78 °C.

`N#CC=C(Cl)c1ccccc1` displayed a melting point of 32 to 34 °C.

As to `CC(=O)CCCOc1ccccc1C(N)=O`, the melting point lay within 80 to 82 °C.

Molecule `Cc1oc2cc(O)ccc2c(=O)c1-c1ccccc1Cl` gave a melting point of 182 to 184 °C.

`COc1cc([N+](=O)[O-])ccc1NC(=O)CCCl` returned a melting point of 144 to 146 °C.

With `O=C1NC2(CCCC2)C(=O)N1CCBr`, the melting point is 97 to 99 °C.

`CCc1n[nH]c(=O)c(C#N)c1CC`: the melting point lay within 166 to 168 °C.

Turning to `Nc1ccccc1Cc1nc(-c2ccsc2)no1`, the melting point was 118 to 120 °C.

Consider `Cc1cc(NC(=O)CCl)no1`, for which the melting point lay in the range of 182 to 190 °C.

`Cc1cc(N2C(=O)c3ccccc3C2=O)ccc1C(=O)O` registered a melting point of 271 to 273 °C.

The molecule `Cc1cc(C)nc(-n2cc(C(=O)O)c(C)n2)n1` returned a melting point of 287 to 289 °C.

`Cc1nc(C2COCCN2C(=O)OC(C)(C)C)no1` (stereo not drawn): the melting point lay within 96 to 98 °C.

As to `COc1ccc(NC(=O)C(Cl)c2ccccc2)cc1` (stereo not drawn), the melting point lay in the range of 152 to 156 °C.

`Cc1nc(COc2ccc(C(=O)O)cc2)cs1`: the melting point lay within 196 to 198 °C.

`COC(=O)Cn1cnc(C#N)n1` came in with a melting point of 53 to 55 °C.

As to `O=C(O)CNC(=O)c1cccc(Cl)c1`, the melting point is 98 to 100 °C.

`O=C(O)c1cccnc1Sc1ccc(Br)cc1` displayed a melting point of 223 to 225 °C.

The molecule `C/C(=N\O)c1cccc(NC(=O)c2ccc(F)cc2)c1` registered a melting point of 196 to 198 °C.

`Cc1ncc(NC(=O)OC(C)(C)C)s1` registered a melting point of 147 to 149 °C.

Take `Cn1cc(Br)c([N+](=O)[O-])n1`: the melting point was 157 to 159 °C.

Molecule `Sc1cnnc2ccccc12` yielded a melting point of 80 to 82 °C.

In turn, `Cc1nn(CC(F)(F)F)cc1C(=O)O` displayed a melting point of 119 to 121 °C.

Molecule `COc1ccc(C)cc1NC(=O)C1CCCN1` (stereo not drawn) registered a melting point of 103 to 105 °C.

`CCCCC1NCCNC1=O` (stereo not drawn) came in with a melting point of 67 to 69 °C.

Molecule `O=Cc1ccccc1OCc1ccccn1` had a melting point of 73 to 75 °C.

On to `Cc1ccc(NS(=O)(=O)c2ccc(C)c(N)c2)c(C)c1`, for which the melting point was 111 to 113 °C.

`Nc1ccn(-c2ccncc2)n1` came in with a melting point of 192 to 194 °C.

Turning to `CCOC(=O)Nc1c(F)cc(F)cc1C#C[Si](C)(C)C`, the melting point lay within 74 to 76 °C.

The molecule `C/C(=N/O)c1ccc2c(c1)CCO2` returned a melting point of 122 to 124 °C.

Regarding `Nn1c(S)nnc1-c1cccnc1`, the melting point fell in the range of 190 to 192 °C.

The molecule `Cn1c(S)nnc1Cc1ccccc1` displayed a melting point of 158 to 160 °C.

`NC(=O)COc1cccc(C(=O)O)c1` returned a melting point of 223 to 225 °C.

For the molecule `CNc1cc(F)ccc1[N+](=O)[O-]`, the melting point is 110 to 112 °C.

Turning to `Nc1ccccc1C(=O)NCc1ccc2c(c1)OCO2`, the melting point was in the range of 115 to 124 °C.

With `COc1nc(C)ccc1C#N`, the melting point was 84 to 86 °C.

The molecule `Nc1ncn(-c2ccccn2)n1` showed a melting point of 174 to 176 °C.

As for `O=C(Cc1nc2ccccc2n1C(F)F)c1cccs1`, the melting point lay within 123 to 125 °C.

Take `N#Cc1cc2c(nc1Cl)CCCC2`: the melting point was 128 to 130 °C.

In turn, `CC(=O)CN1C(=O)COCC1=O` registered a melting point of 77 to 79 °C.

In the case of `CNCc1cn(C)c(=O)n(C)c1=O`, the melting point lay in the range of 128 to 130 °C.

`Cc1nc2n(c1CN1CCNCC1)CCCC2` gave a melting point of 111 to 113 °C.

In the case of `O=C(O)c1ccc(CN2C(=O)CNC2=O)cc1`, the melting point is 282 to 284 °C.

`CCn1ncc2ccc(N)cc21` had a melting point of 117 to 119 °C.

For `O=C(O)CCCCCc1ccc(I)cc1`, the melting point was in the range of 65 to 67 °C.

`N#Cc1ccnc(-n2cccn2)c1` returned a melting point of 96 to 98 °C.

`CC(C)c1ccccc1-n1ccnc1S` registered a melting point of 173 to 177 °C.

In the case of `O=C(O)C1CC1C1CCCCC1` (stereo not drawn), the melting point fell in the range of 52 to 54 °C.

Consider `Ic1c[nH]c2ccncc12`, for which the melting point was in the range of 171 to 173 °C.

The molecule `CSc1ccnc(C#N)c1` returned a melting point of 66 to 68 °C.

Turning to `CC(C)(C)OC(=O)Nc1cccc(Cl)n1`, the melting point fell in the range of 74 to 76 °C.

As for `OC1CCSc2ccccc21` (stereo not drawn), the melting point was 67 to 69 °C.

`O=C(O)CCc1nnc[nH]1`: the melting point lay in the range of 127 to 129 °C.

For `Cc1ccc(-c2nc(CCl)cs2)o1`, the melting point is 71 to 73 °C.

Molecule `CC(=O)CSc1ccccc1C(=O)O` displayed a melting point of 158 to 160 °C.

Take `[N-]=[N+]=NC1(c2ccc(F)cc2)CCOCC1`: the melting point fell in the range of 63 to 65 °C.

On to `CN1CCN(CC(N)c2ccccc2)CC1` (stereo not drawn), for which the melting point lay in the range of 58 to 60 °C.

As to `O=C1OC(C(=O)O)Cc2ccccc21` (stereo not drawn), the melting point is 151 to 153 °C.

Turning to `CC(=O)c1c(Cl)nc2ccccn12`, the melting point was in the range of 116 to 118 °C.

`O=Cc1ccnc(-c2ccccc2)n1` had a melting point of 116 to 118 °C.

Turning to `O=C(O)C1CCCCN1S(=O)(=O)c1ccc([N+](=O)[O-])cc1` (stereo not drawn), the melting point fell in the range of 161 to 163 °C.

For the molecule `Cc1ccc(N2CCCC2)c(C#N)c1`, the melting point lay in the range of 42 to 44 °C.

The molecule `COc1nc(Cl)nc(Cl)n1` gave a melting point of 89 to 91 °C.

Regarding `CCC(N)(C(=O)O)c1ccccc1` (stereo not drawn), the melting point is 285 to 287 °C.

`CC(C)(C)c1ccc(C(=O)CC#N)cc1` yielded a melting point of 78 to 80 °C.

The molecule `COc1ccc(Br)cc1CC(=O)O` showed a melting point of 132 to 134 °C.

The molecule `O=C1NC(=O)C(Cc2c[nH]c3ccccc23)N1` (stereo not drawn) registered a melting point of 235 to 237 °C.

`CCC(CC)C(=O)N1CCC(=NO)CC1` returned a melting point of 101 to 103 °C.
